Numbers after ± are expanded uncertainties.
What was measured:
[1] = Liquid
[2] = xn = mol fraction of the nth substance listed; conditions: Liquid, x2 = 0

CCO [ethanol]
[1]
Conditions | mass density, 288.15 K [kg/m3] | mass density, 298.15 K [kg/m3] | mass density, 308.15 K [kg/m3] | mass density, 318.15 K [kg/m3] | viscosity, 288.15 K [mPa·s] | viscosity, 298.15 K [mPa·s] | viscosity, 308.15 K [mPa·s] | viscosity, 318.15 K [mPa·s]
100.5 kPa | 793.6 ± 0.23 | 785 ± 0.24 | 776.31 ± 0.24 | 767.44 ± 0.25 | 1.337 ± 0.019 | 1.105 ± 0.017 | 0.921 ± 0.016 | 0.771 ± 0.015
101 kPa | 793.6 ± 0.23 | 785 ± 0.24 | 776.31 ± 0.24 | 767.44 ± 0.25 | – | – | – | –

CCCCCC(=O)OCC [ethyl hexanoate]
[1]
Conditions | mass density, 288.15 K [kg/m3] | mass density, 298.15 K [kg/m3] | mass density, 308.15 K [kg/m3] | mass density, 318.15 K [kg/m3] | viscosity, 288.15 K [mPa·s] | viscosity, 298.15 K [mPa·s] | viscosity, 308.15 K [mPa·s] | viscosity, 318.15 K [mPa·s]
100.5 kPa | – | – | – | – | 1.102 ± 0.017 | 0.94 ± 0.016 | 0.814 ± 0.015 | 0.711 ± 0.015
101 kPa | 875.64 ± 0.22 | 866.29 ± 0.22 | 856.91 ± 0.23 | 847.5 ± 0.23 | – | – | – | –

CCO [ethanol] + CCCC(=O)OCCC(C)C
[2]
Conditions | mass density, 288.15 K [kg/m3] | mass density, 298.15 K [kg/m3] | mass density, 308.15 K [kg/m3] | mass density, 318.15 K [kg/m3] | viscosity, 288.15 K [mPa·s] | viscosity, 298.15 K [mPa·s] | viscosity, 308.15 K [mPa·s] | viscosity, 318.15 K [mPa·s]
100.5 kPa | – | – | – | – | 1.337 ± 0.019 | 1.105 ± 0.017 | 0.921 ± 0.016 | 0.771 ± 0.015
101 kPa | 793.6 ± 0.23 | 785 ± 0.24 | 776.31 ± 0.24 | 767.44 ± 0.25 | – | – | – | –

CCCC(=O)OCCC(C)C [3-methylbutyl butanoate]
[1]
Conditions | mass density, 288.15 K [kg/m3] | mass density, 298.15 K [kg/m3] | mass density, 308.15 K [kg/m3] | mass density, 318.15 K [kg/m3] | viscosity, 288.15 K [mPa·s] | viscosity, 298.15 K [mPa·s] | viscosity, 308.15 K [mPa·s] | viscosity, 318.15 K [mPa·s]
100.5 kPa | – | – | – | – | 1.317 ± 0.019 | 1.111 ± 0.018 | 0.952 ± 0.016 | 0.827 ± 0.016
101 kPa | 867.72 ± 0.32 | 858.69 ± 0.32 | 849.62 ± 0.32 | 840.55 ± 0.32 | – | – | – | –

CCO [ethanol] + CCCCCCCC(=O)OCC
[2]
Conditions | mass density, 288.15 K [kg/m3] | mass density, 298.15 K [kg/m3] | mass density, 308.15 K [kg/m3] | mass density, 318.15 K [kg/m3] | viscosity, 288.15 K [mPa·s] | viscosity, 298.15 K [mPa·s] | viscosity, 308.15 K [mPa·s] | viscosity, 318.15 K [mPa·s]
100.5 kPa | – | – | – | – | 1.337 ± 0.019 | 1.105 ± 0.017 | 0.921 ± 0.016 | 0.771 ± 0.015
101 kPa | 793.6 ± 0.23 | 785 ± 0.24 | 776.31 ± 0.24 | 767.44 ± 0.25 | – | – | – | –

CCOC(=O)Cc1ccccc1 [ethyl phenylacetate]
[1]
Conditions | mass density, 288.15 K [kg/m3] | mass density, 298.15 K [kg/m3] | mass density, 308.15 K [kg/m3] | mass density, 318.15 K [kg/m3] | viscosity, 288.15 K [mPa·s] | viscosity, 298.15 K [mPa·s] | viscosity, 308.15 K [mPa·s] | viscosity, 318.15 K [mPa·s]
100.5 kPa | – | – | – | – | 3.002 ± 0.035 | 2.384 ± 0.028 | 1.948 ± 0.024 | 1.624 ± 0.022
101 kPa | 1036.35 ± 0.34 | 1026.96 ± 0.33 | 1017.6 ± 0.33 | 1008.26 ± 0.33 | – | – | – | –

CC(=O)OCCC(C)C [3-methylbutyl ethanoate]
[1], 100.5 kPa
Conditions | mass density [kg/m3] | viscosity [mPa·s]
288.15 K | 877.72 ± 0.36 | 0.94 ± 0.016
298.15 K | 867.91 ± 0.36 | 0.804 ± 0.015
308.15 K | 858.07 ± 0.36 | 0.704 ± 0.015
318.15 K | 848.17 ± 0.36 | 0.627 ± 0.014

CCO [ethanol] + CC(=O)OCCC(C)C
[2], 100.5 kPa
Conditions | mass density [kg/m3] | viscosity [mPa·s]
288.15 K | 793.6 ± 0.23 | 1.337 ± 0.019
298.15 K | 785 ± 0.24 | 1.105 ± 0.017
308.15 K | 776.31 ± 0.24 | 0.921 ± 0.016
318.15 K | 767.44 ± 0.25 | 0.771 ± 0.015

CCO [ethanol] + CCOC(=O)Cc1ccccc1
[2]
Conditions | mass density, 288.15 K [kg/m3] | mass density, 298.15 K [kg/m3] | mass density, 308.15 K [kg/m3] | mass density, 318.15 K [kg/m3] | viscosity, 288.15 K [mPa·s] | viscosity, 298.15 K [mPa·s] | viscosity, 308.15 K [mPa·s] | viscosity, 318.15 K [mPa·s]
100.5 kPa | – | – | – | – | 1.337 ± 0.019 | 1.105 ± 0.017 | 0.921 ± 0.016 | 0.771 ± 0.015
101 kPa | 793.6 ± 0.23 | 785 ± 0.24 | 776.31 ± 0.24 | 767.44 ± 0.25 | – | – | – | –

CCOC(=O)c1ccccc1 [ethyl benzoate]
[1]
Conditions | mass density, 288.15 K [kg/m3] | mass density, 298.15 K [kg/m3] | mass density, 308.15 K [kg/m3] | mass density, 318.15 K [kg/m3] | viscosity, 288.15 K [mPa·s] | viscosity, 298.15 K [mPa·s] | viscosity, 308.15 K [mPa·s] | viscosity, 318.15 K [mPa·s]
100.5 kPa | – | – | – | – | 2.444 ± 0.028 | 1.971 ± 0.024 | 1.624 ± 0.021 | 1.368 ± 0.019
101 kPa | 1050.78 ± 0.17 | 1041.42 ± 0.17 | 1032.07 ± 0.17 | 1022.73 ± 0.16 | – | – | – | –

CCCCCCCC(=O)OCC [ethyl octanoate]
[1]
Conditions | mass density, 288.15 K [kg/m3] | mass density, 298.15 K [kg/m3] | mass density, 308.15 K [kg/m3] | mass density, 318.15 K [kg/m3] | viscosity, 288.15 K [mPa·s] | viscosity, 298.15 K [mPa·s] | viscosity, 308.15 K [mPa·s] | viscosity, 318.15 K [mPa·s]
100.5 kPa | – | – | – | – | 1.697 ± 0.022 | 1.411 ± 0.02 | 1.193 ± 0.018 | 1.027 ± 0.017
101 kPa | 870.79 ± 0.28 | 862.15 ± 0.29 | 853.52 ± 0.29 | 844.87 ± 0.29 | – | – | – | –

CCO [ethanol] + CCCCCC(=O)OCC
[2]
Conditions | mass density, 288.15 K [kg/m3] | mass density, 298.15 K [kg/m3] | mass density, 308.15 K [kg/m3] | mass density, 318.15 K [kg/m3] | viscosity, 288.15 K [mPa·s] | viscosity, 298.15 K [mPa·s] | viscosity, 308.15 K [mPa·s] | viscosity, 318.15 K [mPa·s]
100.5 kPa | – | – | – | – | 1.337 ± 0.019 | 1.105 ± 0.017 | 0.921 ± 0.016 | 0.771 ± 0.015
101 kPa | 793.6 ± 0.23 | 785 ± 0.24 | 776.31 ± 0.24 | 767.44 ± 0.25 | – | – | – | –

CCO [ethanol] + CCOC(=O)c1ccccc1
[2]
Conditions | mass density, 288.15 K [kg/m3] | mass density, 298.15 K [kg/m3] | mass density, 308.15 K [kg/m3] | mass density, 318.15 K [kg/m3] | viscosity, 288.15 K [mPa·s] | viscosity, 298.15 K [mPa·s] | viscosity, 308.15 K [mPa·s] | viscosity, 318.15 K [mPa·s]
100.5 kPa | – | – | – | – | 1.337 ± 0.019 | 1.105 ± 0.017 | 0.921 ± 0.016 | 0.771 ± 0.015
101 kPa | 793.6 ± 0.23 | 785 ± 0.24 | 776.31 ± 0.24 | 767.44 ± 0.25 | – | – | – | –

Reference: the NIST ThermoML archive (doi:10.1021/je050389b)
